In patent US9777005B2 (Takeda Pharmaceutical Company Limited, priority 2012, dated 2017):

Target: T1, human M1 receptor (hCHRM1) (Homo sapiens, UniProt P11229)
T1 construct: expressed in transfected cells; host or cells: CHO-K1
T1 sequence (P11229 1-460): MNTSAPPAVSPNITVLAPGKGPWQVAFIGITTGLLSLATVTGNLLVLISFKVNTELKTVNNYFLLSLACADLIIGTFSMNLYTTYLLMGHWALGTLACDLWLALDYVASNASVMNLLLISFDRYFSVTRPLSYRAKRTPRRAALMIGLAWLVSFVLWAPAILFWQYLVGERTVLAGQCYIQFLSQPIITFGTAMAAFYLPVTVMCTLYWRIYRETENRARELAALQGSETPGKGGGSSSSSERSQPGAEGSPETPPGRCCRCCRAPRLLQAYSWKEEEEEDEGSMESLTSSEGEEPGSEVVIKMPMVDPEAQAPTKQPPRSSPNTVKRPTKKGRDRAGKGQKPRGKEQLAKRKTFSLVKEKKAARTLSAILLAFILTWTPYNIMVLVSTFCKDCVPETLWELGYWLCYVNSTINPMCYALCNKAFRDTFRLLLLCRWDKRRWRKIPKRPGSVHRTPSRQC
Test: Measurement of M1 receptor positive allosteric modulator (M1PAM) activity, calcium fluorescence (FLIPRtetra) in CHO-K1 cells in the presence of acetylcholine at EC20
Format: cell-based
Conditions: in the presence of acetylcholine at EC20 (final 0.6 nM), CHO-K1 cells expressing hCHRM1; for EC50: inflection point of M1PAM activity, read-out: IP value; for activity (%) at 10 μM: test compound 10 μM
Outline: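 PAM activity was measured as calcium flux by FLIPRtetra over 1 min after co-addition of compound and EC20 acetylcholine (final 0.6 nM) to Fluo-4-loaded hCHRM1 CHO-K1 cells. The response was scaled between DMSO (0%) and 1 μM acetylcholine (100%), and the inflection point of the concentration curve gives the IP value.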

Compound	EC50	activity (%) at 10 μM
Cc1cc(-c2ccc(CN3Cc4ccnc(Oc5ccc(C#N)cc5F)c4C3=O)cc2)ccn1 [Example 368, 3-fluoro-4-((2-(4-(2-methylpyridin-4-yl)benzyl)-3-oxo-2,3-dihydro-1H-pyrrolo[3,4-c]pyridin-4-yl)oxy)benzonitrile]	10 nM	99%
O=C1c2c(ncnc2Oc2c(F)cc(F)cc2F)CN1Cc1ccc(-c2ccnnc2)cc1 [Example 369, 6-(4-(pyridazin-4-yl)benzyl)-4-(2,4,6-trifluorophenoxy)-6,7-dihydro-5H-pyrrolo[3,4-d]pyrimidin-5-one]	54 nM	103%
Cn1cc(-c2ccc(CN3Cc4ncnc(Oc5c(F)cc(F)cc5F)c4C3=O)cc2)nn1 [Example 370, 6-(4-(1-methyl-1H-1,2,3-triazol-4-yl)benzyl)-4-(2,4,6-trifluorophenoxy)-6,7-dihydro-5H-pyrrolo[3,4-d]pyrimidin-5-one]	14 nM	97%
Cn1ccc(-c2ccc(CN3Cc4ncnc(Oc5ccc(C#N)cc5F)c4C3=O)cc2)n1 [Example 371, 3-fluoro-4-((6-(4-(1-methyl-1H-pyrazol-3-yl)benzyl)-5-oxo-6,7-dihydro-5H-pyrrolo[3,4-d]pyrimidin-4-yl)oxy)benzonitrile]	13 nM	99%
Cc1nn(C)cc1-c1ccc(CN2Cc3ncnc(Oc4c(F)cccc4F)c3C2=O)c(F)c1 [Example 372, 4-(2,6-difluorophenoxy)-6-(4-(1,3-dimethyl-1H-pyrazol-4-yl)-2-fluorobenzyl)-6,7-dihydro-5H-pyrrolo[3,4-d]pyrimidin-5-one]	46 nM	109%
Cc1cc(-c2ccc(CN3Cc4ccnc(Oc5ccc(C#N)cc5F)c4C3=O)cc2)on1 [Example 373, 3-fluoro-4-((2-(4-(3-methyl-1,2-oxazol-5-yl)benzyl)-3-oxo-2,3-dihydro-1H-pyrrolo[3,4-c]pyridin-4-yl)oxy)benzonitrile]	45 nM	103%
Cn1ccc(-c2ccc(CN3Cc4ccnc(Oc5ccc(C#N)cc5F)c4C3=O)cc2)n1 [Example 374, 3-fluoro-4-((2-(4-(1-methyl-1H-pyrazol-3-yl)benzyl)-3-oxo-2,3-dihydro-1H-pyrrolo[3,4-c]pyridin-4-yl)oxy)benzonitrile]	16 nM	103%
Cn1ccc(-c2ccc(CN3Cc4ccnc(Oc5c(F)cc(C#N)cc5F)c4C3=O)cc2)n1 [Example 375, 3,5-difluoro-4-((2-(4-(1-methyl-1H-pyrazol-3-yl)benzyl)-3-oxo-2,3-dihydro-1H-pyrrolo[3,4-c]pyridin-4-yl)oxy)benzonitrile]	10 nM	99%
Cc1cc(-c2ccc(CN3Cc4ccnc(Oc5c(F)cc(C#N)cc5F)c4C3=O)cc2)ccn1 [Example 376, 3,5-difluoro-4-((2-(4-(2-methylpyridin-4-yl)benzyl)-3-oxo-2,3-dihydro-1H-pyrrolo[3,4-c]pyridin-4-yl)oxy)benzonitrile]	6.9 nM	106%
Cn1cc(-c2ccc(CN3Cc4cccc(Oc5c(F)cc(C#N)cc5F)c4C3=O)nc2)cn1 [Example 377, 3,5-difluoro-4-((2-((5-(1-methyl-1H-pyrazol-4-yl)pyridin-2-yl)methyl)-3-oxo-2,3-dihydro-1H-isoindol-4-yl)oxy)benzonitrile]	7.6 nM	83%
Cn1cc(-c2ccc(CN3Cc4cccc(Oc5c(F)cc(C#N)cc5F)c4C3=O)cn2)cn1 [Example 378, 3,5-difluoro-4-((2-((6-(1-methyl-1H-pyrazol-4-yl)pyridin-3-yl)methyl)-3-oxo-2,3-dihydro-1H-isoindol-4-yl)oxy)benzonitrile]	33 nM	98%
Cc1cc(-c2ccc(CN3Cc4ccnc(Oc5ccc(C(F)F)cc5F)c4C3=O)cc2)ccn1 [Example 379, 4-(4-(difluoromethyl)-2-fluorophenoxy)-2-(4-(2-methylpyridin-4-yl)benzyl)-1,2-dihydro-3H-pyrrolo[3,4-c]pyridin-3-one]	14 nM	90%
Cn1ccc(-c2ccc(CN3Cc4ccnc(Oc5ccc(C(F)F)cc5F)c4C3=O)cc2)n1 [Example 380, 4-(4-(difluoromethyl)-2-fluorophenoxy)-2-(4-(1-methyl-1H-pyrazol-3-yl)benzyl)-1,2-dihydro-3H-pyrrolo[3,4-c]pyridin-3-one]	22 nM	102%
Cc1nn(C)cc1-c1ccc(CN2Cc3ccnc(Oc4ccc(C(F)F)cc4F)c3C2=O)c(F)c1 [Example 381, 4-(4-(difluoromethyl)-2-fluorophenoxy)-2-(4-(1,3-dimethyl-1H-pyrazol-4-yl)-2-fluorobenzyl)-1,2-dihydro-3H-pyrrolo[3,4-c]pyridin-3-one]	7.8 nM	103%

More lines, now with the values ahead:

EC50	activity (%) at 10 μM	Compound
70 nM	99%	CC(C)n1cc(-c2ccc(CN3Cc4cccc(Oc5c(F)cc(C#N)cc5F)c4C3=O)cn2)cn1 [Example 382, 3,5-difluoro-4-((2-((6-(1-isopropyl-1H-pyrazol-4-yl)pyridin-3-yl)methyl)-3-oxo-2,3-dihydro-1H-isoindol-4-yl)oxy)benzonitrile]
48 nM	86%	Cc1cc(-c2ccc(CN3Cc4ccnc(Oc5ccc(Cl)cc5F)c4C3=O)cc2)ccn1 [Example 383, 4-(4-chloro-2-fluorophenoxy)-2-(4-(2-methylpyridin-4-yl)benzyl)-1,2-dihydro-3H-pyrrolo[3,4-c]pyridin-3-one]
7.8 nM	91%	CC(C)n1cc(-c2ccc(CN3Cc4ccnc(Oc5c(F)cc(C#N)cc5F)c4C3=O)cc2)cn1 [Example 384, 3,5-difluoro-4-((2-(4-(1-isopropyl-1H-pyrazol-4-yl)benzyl)-3-oxo-2,3-dihydro-1H-pyrrolo[3,4-c]pyridin-4-yl)oxy)benzonitrile]
2.6 nM	85%	Cc1nn(C)cc1-c1ccc(CN2Cc3ccnc(Oc4c(F)cc(C#N)cc4F)c3C2=O)cc1 [Example 385, 4-((2-(4-(1,3-dimethyl-1H-pyrazol-4-yl)benzyl)-3-oxo-2,3-dihydro-1H-pyrrolo[3,4-c]pyridin-4-yl)oxy)-3,5-difluorobenzonitrile]
1.4 nM	86%	Cn1cc(-c2ccc(CN3Cc4ccnc(Oc5c(F)cc(C#N)cc5F)c4C3=O)c(F)c2)cn1 [Example 386, 3,5-difluoro-4-((2-(2-fluoro-4-(1-methyl-1H-pyrazol-4-yl)benzyl)-3-oxo-2,3-dihydro-1H-pyrrolo[3,4-c]pyridin-4-yl)oxy)benzonitrile]
7.1 nM	102%	Cn1ccc(-c2ccc(CN3Cc4ccnc(Oc5c(F)cc(C#N)cc5F)c4C3=O)c(F)c2)n1 [Example 387, 3,5-difluoro-4-((2-(2-fluoro-4-(1-methyl-1H-pyrazol-3-yl)benzyl)-3-oxo-2,3-dihydro-1H-pyrrolo[3,4-c]pyridin-4-yl)oxy)benzonitrile]
30 nM	102%	Cn1cc(-c2ccc(CN3Cc4ccnc(Oc5ccc(Cl)cc5F)c4C3=O)cc2)cn1 [Example 388, 4-(4-chloro-2-fluorophenoxy)-2-(4-(1-methyl-1H-pyrazol-4-yl)benzyl)-1,2-dihydro-3H-pyrrolo[3,4-c]pyridin-3-one]
32 nM	93%	Cn1cc(-c2ccc(CN3Cc4cccc(Oc5ccc(C(O)C(F)(F)F)cc5F)c4C3=O)nc2)cn1 (stereo not shown) [Example 389, 7-(2-fluoro-4-(2,2,2-trifluoro-1-hydroxyethyl)phenoxy)-2-((5-(1-methyl-1H-pyrazol-4-yl)pyridin-2-yl)methyl)isoindolin-1-one]
71 nM	90%	Cn1cc(-c2ccc(CN3Cc4cccc(Oc5ccc(C(O)C(F)(F)F)cc5F)c4C3=O)cn2)cn1 (stereo not shown) [Example 390, 7-(2-fluoro-4-(2,2,2-trifluoro-1-hydroxyethyl)phenoxy)-2-((6-(1-methyl-1H-pyrazol-4-yl)pyridin-3-yl)methyl)isoindolin-1-one]
10 nM	100%	Cn1cc(-c2ccc(CN3Cc4ccnc(Oc5ccc(C(F)F)cc5F)c4C3=O)cc2)cn1 [Example 391, 4-(4-(difluoromethyl)-2-fluorophenoxy)-2-(4-(1-methyl-1H-pyrazol-4-yl)benzyl)-1,2-dihydro-3H-pyrrolo[3,4-c]pyridin-3-one]
16 nM	105%	Cc1cc(-c2ccc(CN3Cc4ccnc(Oc5ccc(C(F)F)cc5F)c4C3=O)cc2)cnn1 [Example 392, 4-(4-(difluoromethyl)-2-fluorophenoxy)-2-(4-(6-methylpyridazin-4-yl)benzyl)-1,2-dihydro-3H-pyrrolo[3,4-c]pyridin-3-one]
5 nM	89%	Cn1cc(-c2ccc(CN3Cc4ccnc(Oc5ccc(C(O)C(F)(F)F)cc5F)c4C3=O)cc2)cn1 (stereo not shown) [Example 393, 4-(2-fluoro-4-(2,2,2-trifluoro-1-hydroxyethyl)phenoxy)-2-(4-(1-methyl-1H-pyrazol-4-yl)benzyl)-1,2-dihydro-3H-pyrrolo[3,4-c]pyridin-3-one]
